Measured values taken from patent publication US20190187129A1, “CANCER MODELING PLATFORMS AND METHODS OF USING THE SAME” (Wake Forest University Health Sciences, priority 2016, published 2019).
“Also recorded” adds a separate entry of the source.

Key:
[1] = test system: mesothelioma organoids; assay: Biomarker-driven drug study on patient organoids (MTS, Annexin V/Ki67 IHC, H&E); format: cell-based, human; conditions: 0.1 μM, 1 μM, 10 μM; 96 hours
Procedure: (§1) 5 μm thick organoid sections were created from paraffin-embedded constructs, and then deparaffinized for staining. IHC was used to visualize biomarkers cytokeratin 5/6 (CK5/6), calretinin, and thrombomodulin. Blocking was performed by incubation under Dako Protein Block for 15 minutes. Primary antibodies CK5/6 (Abcam, ab17133, raised in mouse) and calretinin (Abcam, ab702, raised in rabbit) or CK5/6 and thrombomodulin (Abcam, ab109189, raised in rabbit) were applied to the sections on the slides at a 1:200 dilution in Dako Antibody Diluent and incubated at room temperature for 1 hour. Next, secondary Alexa Fluor 488 or Alexa Fluor 594 antibodies with appropriate species reactivity were applied to all samples at 1:200 in Dako Antibody Diluent and left at room temperature for 1 hour (anti-mouse Alexa Fluor 488 and anti-rabbit Alexa Fluor 594, Life Technologies, Carlsbad, Calif., A-11070). Sections were then incubated with Dapi for 5 minutes prior to coverslipping. […] Fluorescence images were taken using a Leica DM400B Compound Microscope and overlaid for analysis.
(§2) Tumor constructs were biofabricated once more, after which they were maintained for 3 days prior to drug screening. […] Drug effects were quantified by MTS assays and immunohistochemistry. MTS assays (CellTiter 96 One Solution Reagent Promega, Madison, Wis.) determined relative cell number by quantifying mitochondrial metabolism. Absorbance values were determined on a Molecular Devices SpectrumMax M5 (Molecular Devices) tunable plate reader system at a wavelength of 490 nm.
(§3) Immunohistochemisty staining was performed using biomarkers Annexin V and Ki67 on 5 μm thick organoid sections. […] Fluorescence images were taken using a Leica DM400B Compound Microscope, images were taken of sections next to each other in GFP for Annexin V and Ki67 and overlaid for analysis; Annexin V images were colored red (medium grey in black and white images) and Ki67 images were colored green (light grey in black and white images).

[2] = test system: HCT116 organoids; assay: Biomarker-driven drug study on control organoids (MTS, Annexin V/Ki67 IHC, H&E); format: cell-based; conditions: 0.1 μM, 1 μM, 10 μM; 96 hours
Procedure: as §1, §2, §3

[3] = test system: HCT116 cells; conditions: literature reference 31; cited from earlier work

SMILES: Nc1nccc2c1ncn2[C@@H]1C=C(CO)[C@@H](O)[C@H]1O [DZNep, 3-deazaneplanocin A]
- Annexin V and Ki67 immunohistochemistry [1]: Annexin V appears to increase in mesothelioma with increase in DZNep concentration; also recorded: increasing trend in annexin V expression; also recorded: higher ratios of Annexin V to Ki67
- Hematoxylin and eosin staining, cell morphology [1]: ghost cells and those without nuclei; also recorded: loss of normal morphology and appearance of ghost cells with no nuclei
- proliferation / mitochondrial metabolism (MTS assay) [1]: significant decrease in mesothelioma proliferation; also recorded: decrease in mitochondrial metabolism; also recorded: decreased mitochondrial metabolism
- Annexin V and Ki67 immunohistochemistry [2]: minimal change in proliferation
- Hematoxylin and eosin staining, cell morphology [2]: not present in any HCT116 treatments; also recorded: do not show this dose dependent change
- proliferation / mitochondrial metabolism (MTS assay) [2]: no significant decrease in HCT116 proliferation; also recorded: little effect; also recorded: do not appear to respond negatively
- effect on HCT116 cells upon treatment [3]: cell cycle arrest, but not necessarily significant levels of cell death
